Here are results for 7 compounds from ChEMBL document CHEMBL5096196, “Utilizing structure based drug design and metabolic soft spot identification to optimize the in vitro potency and in vivo pharmacokinetic properties leading to the discovery of novel reversible Bruton's tyrosine kinase inhibitors” (Bioorg Med Chem, 2021).

Each structure is given as a SMILES string.

Data set [1] can be described thus: in vitro. As to conditions: human, liver microsomes. In general terms: Microsomes from liver hold many membrane-bound enzymes, among them those of drug oxidation.
A short description of data set [2]: in vitro. As to conditions: rat, liver microsomes.
Data set [3] is described as follows: Metabolic stability in human liver microsomes. The data set is classed as ADME, Microsome.
The nature of data set [4]: Metabolic stability in rat liver microsomes. The class given is ADME, Microsome.
Another data set is described as follows: physchem. As to conditions: octanol/water.
Data set [5] in a line: Apparent permeability of compound across Caco-2/TC-7 monolayers in human Caco-2 cells by LC/MSMS analysis. The data set is classed as ADME, cell-based. In general terms: Passage across Caco-2 layers is used to estimate intestinal permeability.

As a reminder, the share remaining is the share of the starting amount still present when the sample was taken. Low values mean more turnover, high ones less turnover. The logD is lipophilicity at a set pH, counting ionised and neutral species. A higher logD goes with higher lipophilicity. The term Papp denotes the rate of passage across a membrane or cell layer, normalised by area and donor concentration.

As for `O=C(N[C@@H]1CCCN(c2ncnc3[nH]ncc23)C1)C(O)Nc1cc(Cl)cc(Cl)c1` (some centres not stated), the amount remaining at 0.5 h in “in vitro [1]” was 31%; in “in vitro [2]”, < 5%.
For `N[C@@H](C(=O)N[C@@H]1CCCN(c2ncnc3[nH]ncc23)C1)C1CC1`, the Stability in data set [3] was < 5%; in data set [4], 7%.
Compound `O=C1[C@H](Nc2cc(F)cc(Cl)c2)CCCN1[C@@H]1CCCN(c2ncnc3[nH]ncc23)C1` showed a logD in “physchem” of 4.
Regarding `O=C(O)/C=N/[C@@H]1CCCN(c2ncnc3[nH]ncc23)C1`, the share remaining at 0.5 h came out at 13% in “in vitro [1]” and 85% in “in vitro [2]”.
As to `O=C(N[C@@H]1CCCN(c2ncnc3[nH]ncc23)C1)[C@H](O)C1CC1`, the values for the Stability in data set [3] and in data set [4] were < 5% and 6%, respectively.
`O=C1[C@H](Nc2cc(F)cc(Cl)c2)CCCN1[C@@H]1CCCN(c2ncnc3[nH]ccc23)C1`: the Papp in data set [5] was determined as 28 ×10⁻⁶ cm/s.
Take `O=C(CO)N[C@@H]1CCCN(c2ncnc3[nH]ncc23)C1`: the amount remaining at 0.5 h in the data set “in vitro [1]” was 19%; in the data set “in vitro [2]”, 11%.
